Measured values: the OligoGym collection
“And” between values parts separate entries of the source, which are not always exact repeats. Identical values can stand only once. HELM strings list units from the 5' end as sugar, base in round brackets, then linkage (d deoxyribose, r ribose, m 2'-O-methyl, p phosphodiester). Methylation of C is not given here. [moe] = 2'-O-(2-methoxyethyl) (MOE); [cEt] = constrained ethyl (cEt); [sp] = phosphorothioate linkage

Target: HBV
Details: ASO

Substance	target mRNA inhibition (HepG2, 0.07 µM)	also measured
RNA1{[moe](A)[sp].[moe](G)[sp].[moe](G)[sp].[moe](C)[sp].d(A)[sp].d(T)[sp].d(A)[sp].d(G)[sp].d(C)[sp].d(A)[sp].d(G)[sp].d(C)[sp].d(A)[sp].[moe](G)[sp].[moe](G)[sp].[moe](A)}$$$$V2.0	52% and 36%	–
RNA1{[moe](A)[sp].[moe](G)[sp].[moe](A)[sp].[moe](G)[sp].d(A)[sp].d(A)[sp].d(G)[sp].d(T)[sp].d(C)[sp].d(C)[sp].d(A)[sp].d(C)[sp].d(C)[sp].[moe](A)[sp].[moe](C)[sp].[moe](G)[sp].[moe](A)}$$$$V2.0	17%	–
RNA1{[moe](G)[sp].[moe](A)[sp].[moe](A)[sp].[moe](G)[sp].d(C)[sp].d(G)[sp].d(A)[sp].d(A)[sp].d(G)[sp].d(T)[sp].d(G)[sp].d(C)[sp].d(A)[sp].[moe](C)[sp].[moe](A)[sp].[moe](C)[sp].[moe](G)}$$$$V2.0	65% and 57%	–
RNA1{[moe](G)[sp].[moe](G)[sp].[moe](T)[sp].[moe](G)[sp].[moe](A)[sp].[moe](A)[sp].d(G)[sp].d(C)[sp].d(G)[sp].d(A)[sp].d(A)[sp].d(G)[sp].d(T)[sp].d(G)[sp].d(C)[sp].[moe](A)[sp].[moe](C)}$$$$V2.0	85% and 67%	–
RNA1{[cEt](A)[sp].[moe](G)[sp].[cEt](C)[sp].d(G)[sp].d(A)[sp].d(A)[sp].d(G)[sp].d(T)[sp].d(G)[sp].d(C)[sp].d(A)[sp].[moe](C)[sp].[moe](A)[sp].[moe](C)[sp].[moe](G)[sp].[moe](G)}$$$$V2.0	–	target mRNA inhibition (HepG2, 0.009375 µM): 37%; target mRNA inhibition (HepG2, 0.01875 µM): 39%; target mRNA inhibition (HepG2, 0.0375 µM): 59%; target mRNA inhibition (HepG2, 0.075 µM): 72%; target mRNA inhibition (HepG2, 0.15 µM): 86%; target mRNA inhibition (HepG2, 0.3 µM): 90%
RNA1{[moe](G)[sp].[moe](C)[sp].[moe](A)[sp].[moe](G)[sp].d(A)[sp].d(G)[sp].d(G)[sp].d(T)[sp].d(G)[sp].d(A)[sp].d(A)[sp].d(G)[sp].d(C)[sp].[moe](G)[sp].[moe](A)[sp].[moe](A)}$$$$V2.0	60%	–
RNA1{[moe](T)[sp].[cEt](G)[sp].[cEt](C)[sp].d(A)[sp].d(G)[sp].d(A)[sp].d(G)[sp].d(G)[sp].d(T)[sp].d(G)[sp].d(A)[sp].d(A)[sp].d(G)[sp].[cEt](C)[sp].[cEt](G)[sp].[moe](A)}$$$$V2.0	71% and 73%	–
RNA1{[moe](G)[sp].[moe](T)[sp].[moe](T)[sp].[moe](C)[sp].[moe](C)[sp].d(G)[sp].d(C)[sp].d(A)[sp].d(G)[sp].d(T)[sp].d(A)[sp].d(T)[sp].d(G)[sp].d(G)[sp].[moe](A)[sp].[moe](T)}$$$$V2.0	54% and 51%	–
RNA1{[moe](G)[sp].[moe](A)[sp].d(T)[sp].d(G)[sp].d(A)[sp].d(G)[sp].d(G)[sp].d(C)[sp].d(A)[sp].d(T)[sp].d(A)[sp].[moe](G)[sp].[moe](C)[sp].[moe](A)[sp].[moe](G)[sp].[moe](C)[sp].[moe](A)}$$$$V2.0	72% and 65%	–
RNA1{[moe](C)[sp].[moe](A)[sp].[moe](A)[sp].d(T)[sp].d(T)[sp].d(T)[sp].d(A)[sp].d(T)[sp].d(G)[sp].d(C)[sp].d(C)[sp].d(T)[sp].[moe](A)[sp].[moe](C)[sp].[moe](A)[sp].[moe](G)[sp].[moe](C)}$$$$V2.0	33% and 41%	–
RNA1{[moe](G)[sp].[moe](G)[sp].[moe](A)[sp].d(G)[sp].d(T)[sp].d(T)[sp].d(C)[sp].d(C)[sp].d(G)[sp].d(C)[sp].d(A)[sp].d(G)[sp].d(T)[sp].[cEt](A)[sp].[cEt](T)[sp].[cEt](G)}$$$$V2.0	74% and 82%	target mRNA inhibition (HepG2, 0.0092593 µM): 0%; target mRNA inhibition (HepG2, 0.0277778 µM): 25%; target mRNA inhibition (HepG2, 0.0833333 µM): 53%; target mRNA inhibition (HepG2, 0.25 µM): 72%
RNA1{[moe](T)[sp].[moe](T)[sp].[moe](T)[sp].d(A)[sp].d(T)[sp].d(G)[sp].d(C)[sp].d(C)[sp].d(T)[sp].d(A)[sp].d(C)[sp].d(A)[sp].[moe](G)[sp].[moe](C)[sp].[moe](C)[sp].[moe](T)[sp].[moe](C)}$$$$V2.0	62% and 49%	–
RNA1{[moe](A)[sp].[moe](T)[sp].[moe](T)[sp].d(T)[sp].d(A)[sp].d(T)[sp].d(G)[sp].d(C)[sp].d(C)[sp].d(T)[sp].d(A)[sp].d(C)[sp].d(A)[sp].[cEt](G)[sp].[cEt](C)[sp].[cEt](C)}$$$$V2.0	47% and 65%	–
RNA1{[moe](A)[sp].[moe](T)[sp].[moe](G)[sp].[moe](A)[sp].d(G)[sp].d(G)[sp].d(C)[sp].d(A)[sp].d(T)[sp].d(A)[sp].d(G)[sp].d(C)[sp].d(A)[sp].[moe](G)[sp].[moe](C)[sp].[moe](A)}$$$$V2.0	54% and 49%	–
RNA1{[moe](G)[sp].[moe](A)[sp].d(T)[sp].d(G)[sp].d(A)[sp].d(G)[sp].d(G)[sp].d(C)[sp].d(A)[sp].d(T)[sp].d(A)[sp].[moe](G)[sp].[moe](C)[sp].[moe](A)[sp].[moe](G)[sp].[moe](C)}$$$$V2.0	57% and 33%	–
RNA1{[moe](T)[sp].[moe](T)[sp].[moe](C)[sp].d(C)[sp].d(G)[sp].d(C)[sp].d(A)[sp].d(G)[sp].d(T)[sp].d(A)[sp].d(T)[sp].d(G)[sp].[moe](G)[sp].[moe](A)[sp].[moe](T)[sp].[moe](C)}$$$$V2.0	53% and 50%	–
RNA1{[moe](T)[sp].[cEt](G)[sp].[cEt](A)[sp].d(A)[sp].d(G)[sp].d(C)[sp].d(G)[sp].d(A)[sp].d(A)[sp].d(G)[sp].d(T)[sp].d(G)[sp].d(C)[sp].[cEt](A)[sp].[cEt](C)[sp].[moe](A)}$$$$V2.0	69% and 77%	–
RNA1{[moe](A)[sp].[moe](C)[sp].[moe](G)[sp].[moe](T)[sp].d(G)[sp].d(C)[sp].d(A)[sp].d(G)[sp].d(A)[sp].d(G)[sp].d(G)[sp].d(T)[sp].d(G)[sp].[moe](A)[sp].[moe](A)[sp].[moe](G)}$$$$V2.0	53% and 45%	–
RNA1{[moe](A)[sp].[moe](A)[sp].[moe](C)[sp].d(T)[sp].d(G)[sp].d(G)[sp].d(A)[sp].d(G)[sp].d(C)[sp].d(C)[sp].d(A)[sp].d(C)[sp].[moe](C)[sp].[moe](A)[sp].[moe](G)[sp].[moe](C)[sp].[moe](A)}$$$$V2.0	69% and 58%	–
RNA1{[moe](G)[sp].[cEt](A)[sp].d(A)[sp].d(G)[sp].d(C)[sp].d(G)[sp].d(A)[sp].d(A)[sp].d(G)[sp].d(T)[sp].d(G)[sp].d(C)[sp].[cEt](A)[sp].[moe](C)[sp].[cEt](A)[sp].[moe](C)}$$$$V2.0	74% and 76%	–
RNA1{[moe](T)[sp].[cEt](G)[sp].[cEt](G)[sp].d(A)[sp].d(G)[sp].d(C)[sp].d(C)[sp].d(A)[sp].d(C)[sp].d(C)[sp].d(A)[sp].d(G)[sp].d(C)[sp].[cEt](A)[sp].[cEt](G)[sp].[moe](G)}$$$$V2.0	57% and 53%	–
RNA1{[moe](A)[sp].[moe](A)[sp].[moe](C)[sp].[moe](T)[sp].[moe](G)[sp].[moe](G)[sp].d(A)[sp].d(G)[sp].d(C)[sp].d(C)[sp].d(A)[sp].d(C)[sp].d(C)[sp].d(A)[sp].d(G)[sp].[moe](C)[sp].[moe](A)}$$$$V2.0	70% and 50%	–
RNA1{[moe](C)[sp].[cEt](T)[sp].d(G)[sp].d(G)[sp].d(A)[sp].d(G)[sp].d(C)[sp].d(C)[sp].d(A)[sp].d(C)[sp].d(C)[sp].d(A)[sp].[cEt](G)[sp].[moe](C)[sp].[cEt](A)[sp].[moe](G)}$$$$V2.0	56%	–
